From patent US10004716B2, “Therapeutic/ preventive agent containing coumarin derivative as active ingredient” (NIPPON ZOKI PHARMACEUTICAL CO., LTD., priority 2014, dated 2018)

Legend:
[1] = tested on: rats suffering from degenerative intervertebral disk induced by nicotine; assay: 50% reaction threshold value to mechanical stimulation (von Frey test) in rats with degenerative intervertebral disk induced by nicotine; type: in vivo; conditions: SD male rats, after 41 days from exposure to nicotine, 1 hour after administration; per os once daily; n = 8; normal control 15.0, diseased control 4.6
Method: (§1) After 16 days from the purchase, SD male rats were organized into normal control group and nicotine group in terms of body weight, 50% reaction threshold value (measuring method will be mentioned later) and duration of walking time and, after 17 days from the purchase, exposure to nicotine was started for a nicotine group. Nicotine was prepared into 344.8 mg/mL using a physiological saline solution, filled into an osmotic pressure pump and retained under the skin of waist of rats. After 21 days from the retaining, an osmotic pressure pump into which a freshly-prepared nicotine solution was filled was retained under the skin of rats of five groups except the normal control group. Nicotine was prepared into […] using a physiological saline solution, filled into an osmotic pressure pump and retained under the skin of waist of the SD male rats.
(§2) After 13 days from exposure to nicotine, measurement of 50% reaction threshold value, duration of walking time and body weight were measured and a group organization was done into 6 groups of normal control group, diseased control group, compound 57-administered group, compound 58-administered group, compound 60-administered group and compound 68-administered group.
(§3) A test substance was suspended using 0.5 w/v % CMC and, together with stirring, 10 mL/kg of the suspension was repeatedly administered per os once daily after 14 to 52 or 53 days from the initiation of exposure to nicotine using an oral sonde for rats. To the normal control group and the diseased control group, 0.5 w/v % CMC was repeatedly administered per os in the same administration schedule and administration method.
A 50% reaction threshold value to mechanical stimulation was measured before the exposure to nicotine and after 41 days from the exposure to nicotine. The six groups of the rats mentioned in the above (2) were placed in a transparent acrylic gauge where the bottom is a metal wire, acclimated for about 3 minutes and a 50% reaction threshold value to mechanical stimulation was measured after 1 hour from the administration of a testing drug.
The measurement was conducted using a von Frey filament (manufactured by North Coast Medical Inc.) in accordance with a method of Chaplan, et al. (Journal of Neuroscience Methods, vol. 53, no. 1, pages 55 to 63, 1994) and a method of Dixon, et al. ([…] of Pharmacology and Toxicology, vol. 20, pages 441 to 462, 1980). […] A 50% reaction threshold value to mechanical stimulation was measured using the reaction for the stimulation for six times in total and a mean value in each of the groups was calculated. […]

[2] = tested on: rats suffering from degenerative intervertebral disk induced by nicotine; assay: Duration of walking time (rotor rod) in rats with degenerative intervertebral disk induced by nicotine; type: in vivo; conditions: SD male rats, after 48 days from initiation of exposure to nicotine, 300 seconds maximum, per os once daily, n = 8, normal control 274.1, diseased control 147.7
Method: as §1, §2, §3
Before the exposure to nicotine and after 48 days from the initiation of the exposure to nicotine, duration of waling time of rats was measured using a rotor rod for both rats and mice. A rotating speed was adjusted in such a manner that, when rotation was started in constant acceleration from the state where a rotor stopped, it reached 15 rotations per minute after 300 seconds. A rat was placed on a rotor which was in a stopped state, then the rotor was rotated, the time until the rat dropped was measured (300 seconds in maximum) and a mean value of three runs was determined.

[3] = tested on: NF-κB; assay: Suppressive action to NF-κB activation (luciferase reporter, HEK293T cells, TNF-α); type: cell-based, human; conditions: HEK293T cells with NF-κB reporter; test substance 25 μml/mL 1 hour, then TNF-α 10 ng/mL 5 hours; stimulated TNF-α = 100
Method: A preparation solution containing pGL4.32 [luc2P/NF-κB-RE/Hygrol] (Promega) which is an NF-κB reporter vector, pGL4.74 [hRluc/TK] (Promega) which is a control vector and Lipofectamine LTX (Life Technologies) which is a gene transfer agent was added to human embryo kidney cells (HEK293T cells) sown onto a […] whereupon there were prepared the cells which transiently express a reporter protein.
After 24 hours from the gene transfer, transient expression cells were peeled off by treating with trypsin, sown on a poly-lysine coated white 96-well plate and incubated for one night. The test substance was added to as to make its final concentration 25 μml/mL and, after pre-incubating for 1 hour, TNF-α was added thereto so as to make its final concentration 10 ng/mL followed by incubating for 5 hours more. The cells were dissolved and the activities of a firefly luciferase and a renilla luciferase were measured. Rate of the luminescent intensity by addition of each drug to the luminescent intensity by stimulation with TNF-α were calculated.

[4] = tested on: IL-1β gene expression; assay: Suppression of IL-1α-induced gene expression of inflammation-related factors in bovine cartilage pieces (real time PCR): IL-1β; type: cell-based; conditions: 20 μmol/L test substance 2 hours, then IL-1α 3 ng/mL 8 hours, n = 3
Method: Each 6 to 8 cartilage pieces (diameter: 4 mm) of bovine metacarpophalangeal joint were placed into each well of a 24-well plate and incubated for one night in 1 mL of a basal medium in a CO2 incubator which was set at 37° C. and 5% by volume of CO2. After that, they were incubated for 2 hours in a basal medium containing 20 μmol/L of a test substance and, after addition of human recombinant IL-1α (3 ng/mL) thereto, they were incubated for 8 hours more. After completion of the incubation, the culture medium was discarded, an RNA stabilizer was added to the cartilage pieces, the mixture was incubated at 4° C. for one night and the cartilage pieces were finely cut using scissors, placed into micro-tubes and stored with freezing until the extraction of RNA therefrom.
The cartilage pieces placed in the micro-tubes were pulverized using Tissue Lyser (QIAGEN) (at 25 Hz for 5 minutes; for two times), 1 mL of QIAzol Lysis Reagent (QIAGEN) was added thereto to suspend, 200 μL of chloroform was added thereto followed by mixing and the mixture was centrifuged (1500 rpm at 4° C.) to recover the supernatant liquid. Total RNA was extracted and purified using QIACube (QIAGEN) and RNeasy Micro Kit (QIAGEN). cDNA was prepared from the total RNA using Omniscript RT Kit (QIAGEN) and Oligo(dT)12-18 Primer (Invitrogen).
The cDNA synthesized from the total RNA extracted in the above (2) was used to measure the gene expression level of the inflammation-related factors [IL-1β, IL-6, COX-2 and iNOS (inducible nitric oxide synthase)] by a conventional real time PCR method using a fluorescent dye SYBR GREEN I (Roche Diagnostics) by a Light Cycler LC 480 (the same). A calibration curve was prepared by dilution of a PCR product quantified by a DNA quantitation kit (PicoGreen dsDNA Quantitiation Kit (Molecular Probes)) to an extent of 10^2˜10^7 copies/μL. From each of the resulting measured data, copy numbers per 10000 copies of glyceroaldehyde-3-phosphate dehydrogenase (GAPDH) which was an internal standard were calculated.

## O=c1oc2c(OS(=O)(=O)c3ccc(C(F)(F)F)cc3)cccc2cc1NS(=O)(=O)c1cccc(C(F)(F)F)c1 [Compound 57, 2-Oxo-3-[[3-(trifluoromethyl)phenyl]sulfonylamino]-chromen-8-yl 4-(trifluoromethyl)benzenesulfonate]
[1]
  Threshold Value for Pain: 7.5 g
[2]
  Duration of Walking Time: 187.3 s
[3]
  Luminescent Intensity to Stimulated TNF-α (%): 7.5%
[4]
  Copy Numbers per 10000 Copies of GAPDH IL-1β: 144.8 copies per 10000 copies of GAP

## O=c1oc2c(OS(=O)(=O)c3cccc(C(F)(F)F)c3)cccc2cc1NS(=O)(=O)c1ccc(C(F)(F)F)cc1 [Compound 68, 2-Oxo-3-[[4-(trifluoromethyl)phenyl]sulfonylamino]-chromen-8-yl 3-(trifluoromethyl)benzenesulfonate]
[1]
  Threshold Value for Pain: 7.6 g
[2]
  Duration of Walking Time: 189.2 s
[3]
  Luminescent Intensity to Stimulated TNF-α (%): 16.1%
[4]
  Copy Numbers per 10000 Copies of GAPDH IL-1β: 175.1 copies per 10000 copies of GAP

## O=c1oc2c(OS(=O)(=O)c3ccc(C(F)(F)F)cc3)cccc2cc1NS(=O)(=O)c1cccc(Br)c1 [Compound 58, 3-[(3-Bromophenyl)sulfonylamino]-2-oxochromen-8-yl 4-(trifluoromethyl)benzenesulfonate]
[1]
  Threshold Value for Pain: 6.7 g
[2]
  Duration of Walking Time: 210.9 s
[3]
  Luminescent Intensity to Stimulated TNF-α (%): 14.5%
[4]
  Copy Numbers per 10000 Copies of GAPDH IL-1β: 157.8 copies per 10000 copies of GAP

## O=c1oc2c(OS(=O)(=O)c3cccc(Br)c3)cccc2cc1NS(=O)(=O)c1cccc(C(F)(F)F)c1 [Compound 60, 2-Oxo-3-[[3-(trifluoromethyl)phenyl]sulfonylamino]-chromen-8-yl 3-bromobenzenesulfonate]
[1]
  Threshold Value for Pain: 9.6 g
[2]
  Duration of Walking Time: 208.4 s
[3]
  Luminescent Intensity to Stimulated TNF-α (%): 15.7%
[4]
  Copy Numbers per 10000 Copies of GAPDH IL-1β: 170.6 copies per 10000 copies of GAP
